Assay [1] has as its system RKO colon adenocarcinoma cells (RKOp27) arrested by the expression of ectopic p27Kip1. Description: Alamar Blue cell viability assay on RKOp27 cells arrested by p27Kip1 expression induced by Ponasterone A. The settings on record: Homo sapiens, 72 hours incubation, 10 μM Ponasterone A, read-out: IC50 RKO p27 induced (arrested). The assay is classed as cell-based. On the procedure:
To determine the cell cycle specific mode of action, subclones of RKO colon adenocarcinoma cells (RKOp27 or RKOp21 as described by Schmidt et al. in Oncogene 19, 2423-2429; 2000) are seeded into 96 well flat bottom plates at a density of 15000 cells per well in a volume of 50 μl per well in DMEM growth medium with 10% FCS containing 10 μM Ponasterone A. 24 hours after seeding the 50 μl each of the compound dilutions in DMEM medium are added into each well of the 96 Well plate. Each compound dilution is tested as quadruplicates. Wells containing untreated control cells are filled with 50 μl DMEM medium containing 1% DMSO. The cells are then incubated with the substances for 72 hours at 37° C. in a humidified atmosphere containing 5% carbon dioxide. To determine the viability of the cells, 10 μl of an Alamar Blue solution (Biosource) are added and the fluorescence was measured at an extinction of 544 nm and an emission of 590 nm. For the calculation of the cell viability the emission value from untreated cells is set as 100% viability and the emission rates of treated cells are set in relation to the values of untreated cells. Viabilities are expressed as % values. Viability is compared of proliferating cells grown in the absence of the inducer Ponasterone A, versus viability of cells arrested by the expression of ectopic p27Kip1 induced by Ponasterone A.

For assay [2], the system named is RKO (RKOp27) human colon adenocarcinoma cells. Description: Alamar Blue cell viability assay, anti-proliferative/cytotoxic activity on proliferating (uninduced) RKOp27 cells. The assay is classed as cell-based. The settings on record: 72 hours incubation, absence of the inducer Ponasterone A, read-out: IC50 RKO p27 uninduced (proliferating). On the procedure:
The anti-proliferative/cytotoxic activity of the compounds described herein, can be tested on subclones of RKO (RKOp27) human colon adenocarcinoma cells (Schmidt et al., Oncogene 19, 2423-2429; 2000) using the Alamar Blue cell viability assay (described in O'Brien et al. Eur J Biochem 267, 5421-5426, 2000). The compounds are dissolved as 20 mM solutions in dimethylsulfoxide (DMSO) and subsequently diluted in semi-logarithmic steps. DMSO dilutions are further diluted 1:100 into Dulbecco's modified Eagle's medium (DMEM) containing 10% fetal calf serum to a final concentration twice as much as the final concentration in the test. RKO subclones are seeded into 96 well flat bottom plates at a density of 5000 cells per well in a volume of 50 μl per well. 24 hours after seeding the 50 μl each of the compound dilutions in DMEM medium are added into each well of the 96 Well plate. Each compound dilution is tested as quadruplicates. Wells containing untreated control cells are filled with 50 μl DMEM medium containing 1% DMSO. The cells are then incubated with the substances for 72 hours at 37° C. in a humified atmosphere containing 5% carbon dioxide. To determine the viability of the cells, 10 μl of an Alamar Blue solution (Biosource) are added and the fluorescence is measured at an extinction of 544 nm and an emission of 590 nm. For the calculation of the cell viability the emission value from untreated cells is set as 100% viability and the emission rates of treated cells are set in relation to the values of untreated cells. Viabilities are expressed as % values.
The corresponding IC50 values of the compounds for anti-proliferative/cytotoxic activity are determined from the concentration-effect curves.
Representative IC50 values for anti-proliferation/cytotoxicity determined in the mentioned assay follow from the following table A, in which the numbers of the compounds correspond to the numbers of the examples.

This note sets out measurements from patent publication US7763728B2, “Tetrahydropyridothiophenes” (4SC AG, priority 2005, dated 2010).

The structures appear in SMILES notation.

`COc1ccccc1CCC(=O)Nc1sc2c(c1C#N)CCN(C(=O)Cc1ccncc1)C2` [Example 3, N-[3-Cyano-6-(2-pyridin-4-yl-ethanoyl)-4,5,6,7-tetrahydro-thieno[2,3-c]pyridin-2-yl]-3-(2-methoxy-phenyl)-propionamide]: the IC50 in assay [1] was no less than 40 µM; in assay [2], no more than 0.3 µM.
The corresponding values for `COc1ccccc1CCC(=O)Nc1sc2c(c1C#N)CCN(C(=O)CCc1ccncc1)C2` [Example 122, N-[3-Cyano-6-(3-pyridin-4-yl-propanoyl)-4,5,6,7-tetrahydro-thieno[2,3-c]pyridin-2-yl]-3-(2-methoxy-phenyl)-propionamide] are greater than 100 µM and no more than 0.3 µM.
For `COc1ccccc1C(C)CC(=O)Nc1sc2c(c1C#N)CCN(C(=O)CCn1cnc(C)c1)C2` (racemic) [Example 152, (RS)—N-{3-Cyano-6-[3-(4-methyl-imidazol-1-yl)-propanoyl]-4,5,6,7-tetrahydro-thieno[2,3-c]pyridin-2-yl}-3-(2-methoxy-phenyl)-butyramide], the values for the concentration for half-maximal inhibition (IC50) in assay [1] and in assay [2] were no less than 10 µM and 0.3 to 2 µM, respectively.
`COc1ccccc1C(C)CC(=O)Nc1sc2c(c1C#N)CCN(C(=O)CCn1ccnc1)C2` (racemic) [Example 99, (RS)—N-[3-Cyano-6-(3-imidazol-1-yl-propanoyl)-4,5,6,7-tetrahydro-thieno[2,3-c]pyridin-2-yl]-3-(2-methoxy-phenyl)-butyramide]: the IC50 was no less than 40 µM in assay [1] and 0.3 to 2 µM in assay [2].
As for `CCOc1ccccc1CCC(=O)Nc1sc2c(c1C#N)CCN(C(=O)Cn1cc(C)nc1C)C2` [Example 148, N-{3-Cyano-6-[2-(2,4-dimethyl-imidazol-1-yl)-ethanoyl]-4,5,6,7-tetrahydro-thieno[2,3-c]pyridin-2-yl}-3-(2-ethoxy-phenyl)-propionamide], the IC50 in assay [1] is no less than 10 µM; in assay [2] it was no more than 0.3 µM.
`COc1ccc(C)cc1CCC(=O)Nc1sc2c(c1C#N)CCN(C(=O)Cc1cccnc1)C2` [Example 37, N-[3-Cyano-6-(2-pyridin-3-yl-ethanoyl)-4,5,6,7-tetrahydro-thieno[2,3-c]pyridin-2-yl]-3-(2-methoxy-5-methyl-phenyl)-propionamide]: the IC50 in assay [1] was greater than 100 µM; in assay [2] it was no more than 0.3 µM.
With `CCOc1ccccc1C(C)CC(=O)Nc1sc2c(c1C#N)CCN(C(=O)Cn1cc(C)nc1C)C2` (racemic) [Example 145, (RS)—N-{3-Cyano-6-[2-(2,4-dimethyl-imidazol-1-yl)-ethanoyl]-4,5,6,7-tetrahydro-thieno[2,3-c]pyridin-2-yl}-3-(2-ethoxy-phenyl)-butyramide], the values for the IC50 in assay [1] and in assay [2] were no less than 10 µM and no more than 0.3 µM, respectively.
The corresponding values for `COc1ccc(C)cc1CCC(=O)Nc1sc2c(c1C#N)CCN(C(=O)Cc1ccncc1)C2` [Example 74, N-[3-Cyano-6-(2-pyridin-4-yl-ethanoyl)-4,5,6,7-tetrahydro-thieno[2,3-c]pyridin-2-yl]-3-(2-methoxy-5-methyl-phenyl)-propionamide] are greater than 100 µM and no more than 0.3 µM.
The corresponding values for `COc1ccc(OC)c(CCC(=O)Nc2sc3c(c2C#N)CCN(C(=O)Cc2cccnc2)C3)c1` [Example 36, N-[3-Cyano-6-(2-pyridin-3-yl-ethanoyl)-4,5,6,7-tetrahydro-thieno[2,3-c]pyridin-2-yl]-3-(2,5-dimethoxy-phenyl)-propionamide] are greater than 100 µM and 0.3 to 2 µM.
`COc1cccc(C(C)CC(=O)Nc2sc3c(c2C#N)CCN(C(=O)Cc2ccccn2)C3)c1` (stereo not shown) [Example 58, N-[3-Cyano-6-(2-pyridin-2-yl-ethanoyl)-4,5,6,7-tetrahydro-thieno[2,3-c]pyridin-2-yl]-3-(3-methoxy-phenyl)-butyramide]: the results for the IC50 in assay [1] and in assay [2] were greater than 100 µM and 0.3 to 2 µM, respectively.
As to `COc1ccccc1C(C)CC(=O)Nc1sc2c(c1C#N)CCN(C(=O)CCc1nccn1C)C2` (racemic) [Example 113, (RS)—N-{3-Cyano-6-[3-(1-methyl-1H-imidazol-2-yl)-propanoyl]-4,5,6,7-tetrahydro-thieno[2,3-c]pyridin-2-yl}-3-(2-methoxy-phenyl)-butyramide], the IC50 in assay [1] is no less than 10 µM; in assay [2] it was 0.3 to 2 µM.
Regarding `CCCC(=O)N1CCc2c(sc(NC(=O)CCc3cc(C)ccc3OC)c2C#N)C1` [Example 35, N-(6-Butyryl-3-cyano-4,5,6,7-tetrahydro-thieno[2,3-c]pyridin-2-yl)-3-(2-methoxy-5-methyl-phenyl)-propionamide], the IC50 in assay [1] was greater than 100 µM; in assay [2], no more than 0.3 µM.
As to `COCCOCC(=O)N1CCc2c(sc(NC(=O)CCc3ccccc3OC)c2C#N)C1` [Example 6, N-{3-Cyano-6-[2-(2-methoxy-ethoxy)-ethanoyl]-4,5,6,7-tetrahydro-thieno[2,3-c]pyridin-2-yl}-3-(2-methoxy-phenyl)-propionamide], the half-maximal inhibitory concentration (IC50) in assay [1] was no less than 40 µM; in assay [2], 0.3 to 2 µM.
For the compound `CCCC(=O)N1CCc2c(sc(NC(=O)CC(C)c3ccccc3OC)c2C#N)C1` (racemic) [Example 89, (RS)—N-(6-Butyryl-3-cyano-4,5,6,7-tetrahydro-thieno[2,3-c]pyridin-2-yl)-3-(2-methoxy-phenyl)-butyramide], the IC50 in assay [1] is greater than 100 µM; in assay [2], no more than 0.3 µM.
With `CCOc1ccccc1CCC(=O)Nc1sc2c(c1C#N)CCN(C(=O)Cn1ccnc1)C2` [Example 85, N-[3-Cyano-6-(2-imidazol-1-yl-ethanoyl)-4,5,6,7-tetrahydro-thieno[2,3-c]pyridin-2-yl]-3-(2-ethoxy-phenyl)-propionamide], the IC50 in assay [1] was no less than 40 µM; in assay [2], no more than 0.3 µM.
Turning to `CCOc1cccc(C(C)CC(=O)Nc2sc3c(c2C#N)CCN(C(=O)Cc2ccncc2)C3)c1` (racemic) [Example 69, (RS)—N-[3-Cyano-6-(2-pyridin-4-yl-ethanoyl)-4,5,6,7-tetrahydro-thieno[2,3-c]pyridin-2-yl]-3-(3-ethoxy-phenyl)-butyramide], the IC50 in assay [1] is greater than 100 µM; in assay [2], 0.3 to 2 µM.
Consider `COc1cccc(CCC(=O)Nc2sc3c(c2C#N)CCN(C(=O)Cc2ccncc2)C3)c1` [Example 72, N-[3-Cyano-6-(2-pyridin-4-yl-ethanoyl)-4,5,6,7-tetrahydro-thieno[2,3-c]pyridin-2-yl]-3-(3-methoxy-phenyl)-propionamide], for which the IC50 in assay [1] was greater than 100 µM; in assay [2], no more than 0.3 µM.
On to `CCOc1ccccc1CCC(=O)Nc1sc2c(c1C#N)CCN(C(=O)CCn1cnc(C)c1)C2` [Example 156, N-{3-Cyano-6-[3-(4-methyl-imidazol-1-yl)-propanoyl]-4,5,6,7-tetrahydro-thieno[2,3-c]pyridin-2-yl}-3-(2-ethoxy-phenyl)-propionamide], for which the IC50 in assay [1] is no less than 10 µM; in assay [2], no more than 0.3 µM.
The corresponding values for `COc1ccccc1CCC(=O)Nc1sc2c(c1C#N)CCN(C(=O)Cc1cccnc1)C2` [Example 2, N-[3-Cyano-6-(2-pyridin-3-yl-ethanoyl)-4,5,6,7-tetrahydro-thieno[2,3-c]pyridin-2-yl]-3-(2-methoxy-phenyl)-propionamide] are no less than 40 µM and no more than 0.3 µM.
The corresponding values for `COc1cccc(CCC(=O)Nc2sc3c(c2C#N)CCN(C(=O)Cn2ccnc2C)C3)c1` [Example 129, N-{3-Cyano-6-[2-(2-methyl-imidazol-1-yl)-ethanoyl]-4,5,6,7-tetrahydro-thieno[2,3-c]pyridin-2-yl}-3-(3-methoxy-phenyl)-propionamide] are no less than 40 µM and 0.3 to 2 µM.
